Test results: US9919941B2, “Multiple uses of amine salts for industrial water treatment” (AMSA, Inc., priority 2012, dated 2018)
Where two headings read alike, the source gives them in different places.

Assays:
[1] = test system: planktonic microbial population of cooling tower water; assay: time-kill biocidal efficacy, hybrid planktonic-sessile procedure: planktonic population; assay type: cell-based, natural mixed aerobic microbial population; conditions: for reduction in the total planktonic population / activity at 10 ppm / Planktonic CFU/10 mL, 20-24 h / Planktonic CFU/10 mL, 48-54 h / Planktonic CFU/10 mL, 120 h / Planktonic CFU/10 mL, Total / Planktonic, 20-24 h, % of Control / Planktonic, 48-54 h, % of Control / Planktonic, 120 h, % of Control / Planktonic, Total, % of Control: 10 ppm Compound B, others equimolar; for reduction in the total planktonic population: 110 minutes; for activity at 10 ppm / Planktonic CFU/10 mL, 20-24 h / Planktonic CFU/10 mL, 48-54 h / Planktonic CFU/10 mL, 120 h / Planktonic CFU/10 mL, Total / Planktonic, 20-24 h, % of Control / Planktonic, 48-54 h, % of Control / Planktonic, 120 h, % of Control / Planktonic, Total, % of Control: exposure 110 minutes; for Planktonic CFU/10 mL, 20-24 h: fast growing population; for Planktonic CFU/10 mL, 48-54 h: moderate growth rate population; for Planktonic CFU/10 mL, 120 h: slow growth rate population
Method: An experiment was conducted to assess biocidal effectiveness of Compounds A and B and their respective Compounds 13 and 1 anion analogs. Time-kill tests were conducted using a hybrid planktonic-sessile procedure which allowed assessment of biocidal effectiveness against both planktonic and sessile microbial populations. A natural mixed aerobic microbial population in samples collected from an operating cooling tower was used as inoculum for the test. Biocide test concentration for Compound B was 10 ppm. All other products were tested at the equivalent molar concentration. Biocide exposure was 110 minutes. The following procedure was used which generally followed the biocidal testing method of Walter, R. W. and Cooke, L. […] A New Multifunctional Biocide Which Enhances Corrosion Inhibition,” NACE Paper 410, 1997. A water sample was collected from a cooling tower that contained a natural mixed population of microorganisms that grew at different rates when plated on Petrifilm. The populations of cells that grew on Petrifilm in 20-24 hours, 48-54 hours and at 120 hours were treated as separate populations. […] The washers were allowed seven days to develop a biofilm on their surface. Prior to chemical treatment, 10 mL aliquots of the CTW were removed from the beaker and placed into individual exposure test tubes along with a single washer. Test compounds were then added to the individual tubes at equimolar concentrations. All exposure tests including untreated controls were conducted in triplicate (i.e., three washers in separate exposure tubes). After addition of the test compound, the tube was briefly mixed by mild vortexing and again occasionally throughout the exposure time. Determination of residual viable cell population in the bulk water: 1 mL of the water from the exposure tube was plated on petrifilm. A second 1 ml was added to 9 mL tube of Letheen broth and mixed by shaking 10 times. A 1 mL aliquot was plated on petrifilm, a second 1 mL aliquot was added to a 9 ml tube of Butterfields Broth and again shaken 10 times. This serial sequence of plating the dilution and subsequent 1/10 dilution was repeated through 10^-4 to 10^-5 dilution. Determination of colony forming units (CFU) at different incubation times: After plating the various solutions on Petrifilm, the films were incubated at 36° C. for the first 24 hours. At 20 hours the […] read and CFU were recorded. This population was defined as a fast growing population. The […] then incubated for additional time either at 36° C. or room temperature and read at 54 hours. This second population is in addition to the fast growth rate population and was defined as moderate growth rate organisms. Incubation was continued and the […] again after 120 hours. This third population was also treated as separate from the fast and moderate growth rate populations and is referred to as the slow growth rate population. As noted above, each compound was evaluated in triplicate with three separate washers and the results were averaged. Average CFU/mL values were used to calculate total planktonic test population (CFU/10 mL) and total sessile test population (CFU/washer) in each test system.

[2] = test system: sessile microbial population (biofilm on stainless steel washers); assay: time-kill biocidal efficacy, hybrid planktonic-sessile procedure: sessile population; assay type: cell-based, natural mixed aerobic microbial population; conditions: 10 ppm Compound B, others equimolar; for reduction in the total sessile population: 110 minutes; for activity at 10 ppm / Sessile CFU/, 20-24 h / Sessile CFU/, 48-54 h / Sessile CFU/, 120 h / Sessile CFU/, Total / Sessile, 20-24 h, % of Control / Sessile, 48-54 h, % of Control / Sessile, 120 h, % of Control / Sessile, Total, % of Control: exposure 110 minutes; for Sessile CFU/, 20-24 h / Sessile CFU/, 48-54 h / Sessile CFU/, 120 h / Sessile CFU/, Total: per washer
Method: An experiment was conducted to assess biocidal effectiveness of Compounds A and B and their respective Compounds 13 and 1 anion analogs. Time-kill tests were conducted using a hybrid planktonic-sessile procedure which allowed assessment of biocidal effectiveness against both planktonic and sessile microbial populations. A natural mixed aerobic microbial population in samples collected from an operating cooling tower was used as inoculum for the test. Biocide test concentration for Compound B was 10 ppm. All other products were tested at the equivalent molar concentration. Biocide exposure was 110 minutes. The following procedure was used which generally followed the biocidal testing method of Walter, R. W. and Cooke, L. […] A New Multifunctional Biocide Which Enhances Corrosion Inhibition,” NACE Paper 410, 1997. A water sample was collected from a cooling tower that contained a natural mixed population of microorganisms that grew at different rates when plated on Petrifilm. The populations of cells that grew on Petrifilm in 20-24 hours, 48-54 hours and at 120 hours were treated as separate populations. […] The washers were allowed seven days to develop a biofilm on their surface. Prior to chemical treatment, 10 mL aliquots of the CTW were removed from the beaker and placed into individual exposure test tubes along with a single washer. Test compounds were then added to the individual tubes at equimolar concentrations. All exposure tests including untreated controls were conducted in triplicate (i.e., three washers in separate exposure tubes). After addition of the test compound, the tube was briefly mixed by mild vortexing and again occasionally throughout the exposure time. Washer sonication to release organisms not released by the chemical treatment: […], the washer was removed from the tube, dipped 10 times in Letheen broth, then placed into a 9 mL tube of sterile Butterfields buffer, and sonicated for 8 minutes. Determination of cell population removed from washers by sonication: After the tube with washer was sonicated, a 1 mL aliquot was plated onto petrifilm and a serial dilution in Butterfields Buffer was performed with each dilution being plated to petrifilm. Determination of colony forming units (CFU) at different incubation times: After plating the various solutions on Petrifilm, the films were incubated at 36° C. for the first 24 hours. At 20 hours the […] read and CFU were recorded. This population was defined as a fast growing population. The […] then incubated for additional time either at 36° C. or room temperature and read at 54 hours. This second population is in addition to the fast growth rate population and was defined as moderate growth rate organisms. Incubation was continued and the […] again after 120 hours. This third population was also treated as separate from the fast and moderate growth rate populations and is referred to as the slow growth rate population. As noted above, each compound was evaluated in triplicate with three separate washers and the results were averaged. Average CFU/mL values were used to calculate total planktonic test population (CFU/10 mL) and total sessile test population (CFU/washer) in each test system.

Compound	reduction in the total planktonic population [1]	Planktonic CFU/10 mL, 20-24 h ([1]; 20-24 h incubation)	Planktonic CFU/10 mL, 48-54 h ([1]; 48-54 h incubation)	Planktonic CFU/10 mL, 120 h ([1]; 120 h incubation)	Planktonic CFU/10 mL, Total ([1]; total population)	reduction in the total sessile population [2]	Sessile CFU/, 20-24 h ([2]; 20-24 h incubation)	Sessile CFU/, 48-54 h ([2]; 48-54 h incubation)	Sessile CFU/, 120 h ([2]; 120 h incubation)	Sessile CFU/, Total ([2]; total population)	Planktonic, 20-24 h, % of Control ([1]; 20-24 h incubation)	Planktonic, 48-54 h, % of Control ([1]; 48-54 h incubation)	Planktonic, 120 h, % of Control ([1]; 120 h incubation)	Planktonic, Total, % of Control ([1]; total population)	Sessile, 20-24 h, % of Control ([2]; 20-24 h incubation)	Sessile, 48-54 h, % of Control ([2]; 48-54 h incubation)	Sessile, 120 h, % of Control ([2]; 120 h incubation)	Sessile, Total, % of Control ([2]; total population)	other results
CCCCCCCCCCSCCN.Cl [Compound A, 2-(decylthio)ethanamine hydrochloride]	97%	940 CFU/10 mL	13,500 CFU/10 mL	227,000 CFU/10 mL	241,000 CFU/10 mL	96%	405 CFU/	360 CFU/	60,000 CFU/	60,800 CFU/									activity at 10 ppm ([1]; 20-24 h incubation, read-out: Planktonic, 20-24 h, % of Control): 94.9%; activity at 10 ppm ([1]; 48-54 h incubation, read-out: Planktonic, 48-54 h, % of Control): 3.6%; activity at 10 ppm ([1]; 110 min, total population, read-out: Planktonic, Total, % of Control): 2.9%; activity at 10 ppm ([1]; 120 h incubation, read-out: Planktonic, 120 h, % of Control): 2.8%; activity at 10 ppm ([2]; 20-24 h incubation, read-out: Sessile, 20-24 h, % of Control): 182%; activity at 10 ppm ([2]; 48-54 h incubation, read-out: Sessile, 48-54 h, % of Control): 0.04%; activity at 10 ppm ([2]; 110 min, total population, read-out: Sessile, Total, % of Control): 4%; activity at 10 ppm ([2]; 120 h incubation, read-out: Sessile, 120 h, % of Control): 8.8%
CCCCCCCCCCOCCCN.O=C(O)CC(O)(CC(=O)O)C(=O)O [Compound 1, 2-hydroxypropane-1,2,3-tricarboxylic acid salt of aminopropyloxydecane]		970 CFU/10 mL	340,000 CFU/10 mL	2,280,000 CFU/10 mL	2,620,000 CFU/10 mL		234 CFU/	36,000 CFU/	265,000 CFU/	301,000 CFU/	97.9%	90.3%	28.4%	31.1%	104.9%	4.4%	38.7%	19.9%	biocidal effectiveness compared with parent salt (in words) ([1]; planktonic and sessile populations, same experimental conditions and molar concentration): very similar (within experimental error) to those obtained with Compound B
CC(=O)O.CCCCCCCCCCOCCCN [Compound B, ethanoic acid salt of aminopropyloxydecane]	63%	810 CFU/10 mL	320,000 CFU/10 mL	2,780,000 CFU/10 mL	3,100,000 CFU/10 mL	80%	207 CFU/	49,200 CFU/	258,000 CFU/	307,000 CFU/	81.7%	85.0%	34.6%	36.8%	92.8%	6.0%	37.7%	20.3%	
